Series [1] has as its system K. pneumoniae (ATCC BAA 1705).
For series [2], the system named is E. coli (ATCC BAA-2452).
The test system of series [3] is K. pneumoniae (ATCC 700603).
Series [4] is described as follows: in vitro. The following applies: human, human plasma.
Protocol: For accurate quantification, we employed a mass spectrometer (Q-TOF LC/MS) with a high resolving power. To remove the background interference, the data were processed by using a narrower (±0.1 m/z) extracted ion chromatogram (EIC) window. The test peptide (100 μM) was incubated in human plasma at 37 °C in a water bath. […] Plasma proteins were precipitated by the addition of cold ethanol (200 μL) and incubated for 30 min at −20 °C. […] The samples were dissolved in water and analyzed on a Delta-Pak (Waters) C18 column (100 Å, 5 μm, 3.9 mm × 150 mm) at a flow rate of 0.3 mL/min using a linear gradient of aqueous acetonitrile in the presence of formic acid (FA; 0.1%, v/v) as an ion pair reagent. Peptides were detected by recording the absorbance at 220 nm and quantified by their peak areas of EIC. The percentage digestion of the test peptides was calculated relative to the peak areas at 0 min.
Series [5] has as its system Acinetobacter baumannii (NCTC 13304).
Series [6] relates to E. coli (1191008).
Series [7] has as its system P. aeruginosa (1191191).
Series [8] concerns S. aureus (1195201).
In series [9] the test system is human red blood cells (hRBCs). The following applies: red cells of human, 2 h.
Protocol: The hemolytic activity of all the cyclic peptides was determined using human red blood cells (hRBC) purchased from BioIVT, USA. […] Peptide-induced hemolysis was tested in triplicate by mixing 75 μL of the peptide solution in PBS (two-fold serial dilution) with 75 μL of a 4% (v/v) hRBC suspension in phosphate-buffered saline. The plates were incubated for 2 h at 37 °C without agitation and centrifuged at 1000g for 10 min. Aliquots (100 μL) of the supernatant were transferred to 96-well plates, where hemoglobin release was measured spectrophotometrically at 567 nm. Percent hemolysis was calculated by the following formula: [drawing 1] where A represents the absorbance of the peptide sample at 567 nm and A0 and At represent zero percent and 100% hemolysis determined in phosphate-buffered saline and 1% Triton X-100, respectively.
For series [10], the system named is P. aeruginosa (ATCC 27883). The following applies: 24 h, ≥99.9% kill.
The subject of series [11] is Acinetobacter baumannii-calcoaceticus species complex (1188767).
In series [12] the test system is S. aureus (1193193).
The test system of series [13] is K. pneumoniae (1188718).
Series [14] concerns P. aeruginosa (1188712).
In series [15] the test system is Acinetobacter baumannii-calcoaceticus species complex (1189854).
The test system of series [16] is P. aeruginosa (ATCC 27853).
For series [17], the system named is E. coli (ATCC 25922).
Series [18] has as its system K. pneumoniae (ATCC BAA-1705). The following applies: 24 h, ≥99.9% kill.
The subject of series [19] is S. aureus (ATCC 29213).
Series [20] concerns E. coli (ATCC 25922). The following applies: 24 h, ≥99.9% kill.

≈ marks a conversion by molar mass, not a printed value.

With `N=C(N)NCCC[C@@H]1NC(=O)[C@H](CCCNC(=N)N)NC(=O)[C@H](CCCNC(=N)N)NC(=O)[C@H](Cc2c[nH]c3ccccc23)NC(=O)[C@H](Cc2c[nH]c3ccccc23)NC(=O)[C@H](Cc2c[nH]c3ccccc23)NC(=O)[C@H](Cc2c[nH]c3ccccc23)NC(=O)[C@H](CCCNC(=N)N)NC(=O)[C@H](CCCNC(=N)N)NC1=O` [5a, [R5W4]], the “MIC K. pneumoniae (ATCC BAA 1705)” value in [1] was above 64 µg/mL. Besides, in series [2], the “MIC E. coli (ATCC BAA-2452)” value was determined as 16 µg/mL (≈ 10.5 µM). For the same compound, the “MIC K. pneumoniae (ATCC 700603)” value in series [3] is above 64 µg/mL. Also, in [4], the amount remaining at 0.5 h, 100 μM is around 79% and the fraction remaining at 2 h, 100 μM was around 56%. Moreover, the “MIC Acinetobacter baumannii (NCTC 13304)” value in series [5] was determined as 16 µg/mL (≈ 10.5 µM). Moreover, the “MIC E. coli (1191008)” value in series [6] was 16 µg/mL (≈ 10.5 µM). Also, the “MIC P. aeruginosa (1191191)” value in [7] was 32 µg/mL (≈ 21 µM). Also, the “MIC S. aureus (1195201)” value in series [8] came to 4 µg/mL (≈ 2.62 µM). Moreover, the concentration for 50% haemolysis (HC50) in series [9] was determined as 340 µg/mL. Besides, in series [10], the “MBC P. aeruginosa (ATCC 27883)” value was found to be 32 µg/mL (≈ 21 µM). Also, the “MIC Acinetobacter baumannii-calcoaceticus species complex (1188767)” value in [11] is 32 µg/mL (≈ 21 µM). For the same compound, in series [12], the “MIC S. aureus (1193193)” value was 4 µg/mL (≈ 2.62 µM). Moreover, the “MIC K. pneumoniae (1188718)” value in series [13] is above 64 µg/mL. Further, in [14], the “MIC P. aeruginosa (1188712)” value is 16 µg/mL (≈ 10.5 µM). Further, the “MIC Acinetobacter baumannii-calcoaceticus species complex (1189854)” value in series [15] is 16 µg/mL (≈ 10.5 µM). In addition, the “MIC P. aeruginosa (ATCC 27853)” value in [16] turned out to be 32 µg/mL (≈ 21 µM). In addition, the “MIC E. coli (ATCC 25922)” value in [17] amounted to 16 µg/mL (≈ 10.5 µM). In addition, the “MBC K. pneumoniae (ATCC BAA-1705)” value in [18] amounted to 64 µg/mL (≈ 41.9 µM). Further, the “MIC S. aureus (ATCC 29213)” value in [19] stood at 4 µg/mL (≈ 2.62 µM). In series [20], the “MBC E. coli (ATCC 25922)” value stood at 16 µg/mL (≈ 10.5 µM).

By share remaining is commonly meant the share of the starting amount still present when the sample was taken. A low value points to more turnover. Usually HC50 stands for the concentration that lyses half of the red blood cells.
